Assays:
caspase 3 = assay: ASK1-induced caspase 3 activity assay in BAEC (Ac-DEVD-AMC substrate); assay type: cell-based, Bovine; conditions: 100 μM inhibitor in lysate assay
Procedure: Caspase 3 activity assay: Caspase 3 activity was measured with a Caspase 3 fluorescence kit (Sigma) according to the Manufacturer's protocol. Briefly, BAEC were harvested in Caspase 3 lysis buffer (25 mM Hepes, pH 7.4, 5 mM CHAPS, 5 mM DTT) and incubated on ice for 15-20 min followed by a centrifugation at 14,000× g for 10-15 min at 4° C. For each reaction, 5 μl (200 μg) of cell lysate was incubated with 200 μl of 16 μM Caspase 3 peptide substrate acetyl-ASP-Glu-Val-Asp-7 amido-4-methylcoumarin (Ac-DEVD-AMC) in the assay buffer (25 mM Hepes, pH 7.4, 5 mM EDTA, 0.1% CHAPS, 5 mM DTT) in the presence or absence of 100 μM Caspase 3 inhibitor (Ac-DEVD-CHO). The reaction was incubated in the dark for 1-1.5 h and fluorescence was measured in a fluorescence plate reader. The measured fluorescence was used as an arbitrary unit.
Then the effects. of Trx on ASK1-induced caspase 3 activation, a hallmark of the execution of apoptotic cell death (Green D R. Apoptotic pathways: paper wraps stone blunts scissors. Cell. 102:1-4 (2000); Hengartner MO. The biochemistry of apoptosis. Nature. 407:770-6 2000)) was examined. Caspase 3 activity was determined by an in vitro assay using peptide substrate acetyl-ASP-Glu-Val-Asp-7 amido-4-methylcounarin (Ac-DEVD-AMC). Overexpression of ASK1 in BAEC increased caspase 3 activity compared to the control cells (FIG. 6B).

adult rat cardiomyocytes = assay: Twitch amplitude of field-stimulated adult rat cardiac myocytes; conditions: 100 μM H2O2, field stimulated at 1 Hz, n=15
From the text: Phosphorylation of endogenous cTnT in cardiomyocytes was examined by in vivo labeling with ^32P-orthophosphate and cell lysates were immunoprecipitated with anti-cTnT followed by SDS-PAGE/autoradiography.

[1] = tested on: neonatal rat cardiomyocytes; conditions: 100 μM H2O2, 15 min post-treatment
Procedure: Primary cultures of neonatal rat cardiac ventricular myocytes were prepared by the method of Simpson and Savion (Simpson P et al. Differentiation of rat myocytes in single cell cultures with and without proliferating nonmyocardial cells. Cross-striations, ultrastructure, and chronotropic response to isoproterenol. Circ Res. 50:101-16 (1982)) with minor modifications. Briefly, the ventricles were excised from 1-2 day old Wistar rats under ethyl ether anesthesia and minced with scissors in Ca^2+ free Krebs-Henseleit buffer (KHB) solution. The cells were dispersed by adding KHB containing 0.05% trypsin and 0.05% collagenase type II. They were stirred with the use of a small magnetic stirrer bar at 37° C. for 10 min, and the supernatants were saved in cold DMEM containing 10% fetal calf serum (complete DMEM), and digestion was repeated four times. The resultant cell suspension was centrifuged, and the pellet was resuspended in the medium. The cells were plated onto culture flasks for 1.5 hours to remove non-cardiac myocytes. The unattached cells were removed and seeded at 4×10^5 per well in 2.2 cm multi-well gelatin-coated culture plates in DMEM containing 10% fetal calf serum, 100 U/ml penicillin and 100 μg/ml streptomycin. […]
Cardiomyocyte contraction was determined by microscopy. […]

ASK1 [2] = assay: Association of Trx with ASK1 in vivo in BAEC (co-immunoprecipitation); assay type: binding, Bovine; conditions: endogenous proteins, IP anti-Trx / Western anti-ASK1; Nac pretreatment then TNF
Procedure: Immunoprecipitation and immunoblotting EC after various treatments were washed twice with cold PBS and lysed in 1.5 ml of cold lysis buffer (50 mM Tris-HC, pH 7.6, 150 mM NaCl, 0.1% Triton X-100, 0.75% Brij 96, 10 μg/ml aprotinin, 10 μg/ml leupeptin, 2 mM PMSF, 1 mM EDTA) for 20 min on ice. Protein concentrations were determined with a Bio-Rad kit. For immunoprecipitation to analyze protein interaction in vivo, 400 μg of cell lysate supematant were incubated with 5 μg of the first protein-specific antiserum (e.g. anti-Trx from Medical & Biological Laboratory) for 2 h with 50 μl of GammaBind plus Sepharose. Immune complexes were collected after each immunoprecipitation by centrifugation at 14,000× g for 10 min followed by 4 washes with lysis buffer. The immune complexes were subjected to Western blot with the second protein (e.g., ASK1)-specific antibody (Santa Cruz Biotech, Santa Cruz, Calif.). The chemiluminescence was detected using an ECL kit according to the instructions of the manufacturer (Amersham Life Science, Arlington Heights, Ill.). […]
TNF dissociates wild type Trx but not Trx-C32S or Trx-C35Sfroin ASK1 in vivo. […] TNF-induced ASK1 activation was measured by an in vitro kinase assay using GST-MKK4 (JNKK1) fusion protein as a substrate. […] Association of ASK1 with Trx was easily detected in untreated EC cells (FIG. 5B, Ctrl). […]

ASK1 [3] = assay: TNF-induced ASK1 activation in BAEC, in vitro kinase assay with GST-MKK4; assay type: cell-based, Bovine; conditions: Nac 1 mM pretreatment, TNF-α 10 ng/ml 15 min; n=3, p<0.01
Procedure: J Immunol. 159:3508-18 (1997)) using GST-MKK4 and GST-c-Jun (1-80) fusion protein as a substrate, respectively. Briefly, total 400 μg cell lysates were immunoprecipitated with 5 μg of antibody against ASK1 or JNK1 (Santa Cruz). The immunoprecipitates were mixed with 10 μg GST-MKK4 or GST-c-Jun (1-80) suspended in the kinase buffer (20 mM Hepes, pH 7.6, 20 mM MgCl2, 25 mM β-glycerophosphate, 100 μM sodium orthovanadate, 2 mM DTT, 20 μM ATP) containing 1 μl (10 μCi) of [γ-32P] ATP. The kinase assay was performed at 25° C. for 30 min. The reaction was terminated by the addition of Laemmli sample buffer and the phosphorylated GST-MKK4 or GST-c-Jun (1-80) was visualized by autoradiography.
TNF dissociates wild type Trx but not Trx-C32S or Trx-C35Sfroin ASK1 in vivo. Trx-C32S and Trx-C35S were examiner to determine whether they constitutively bind to ASK1 in vivo. Regulation of ASK1 by Trx was first examined to determine if such regulation is ROS-dependent in EC. BAEC were either untreated or treated with N-acetyl-cysteine (Nac, 1 mM) or vehicle for 60 min prior to TNF-α (10 ng/ml) stimulation for 15 min. TNF-induced ASK1 activation was measured by an in vitro kinase assay using GST-MKK4 (JNKK1) fusion protein as a substrate. TNF activated ASK1 in EC (FIG. 5A). […] Association of ASK1 with Trx was easily detected in untreated EC cells (FIG. 5B, Ctrl). […]

Ac-DEVD-CHO [reference compound]
caspase 3 activity in presence of caspase 3 inhibitor (caspase 3): specifically inhibited

OO [Trx H2O2, Hydrogen peroxide]
time to complete inhibition of twitch (adult rat cardiomyocytes): 2.38 ± 018 min
spontaneous beating of neonatal cardiomyocytes [1]: completely inhibited

CC(=O)N[C@@H](CS)C(=O)O [Nac, N-acetyl-cysteine, reference compound]
TNF-induced dissociation of ASK1 from Trx (ASK1 [2]): prevented
inhibition of TNF-stimulated ASK1 activity (ASK1 [3]): 70%

Source: patent US20060148057A1, “Thioredoxin mutants and uses thereof” (priority 2002, published 2006)
